Assay results published in US20020102259A1, “Methods and compositions for stimulating CD 45 and thereby suppressing microglial activation associated with Alzheimer's disease” (priority 2000, published 2002).
Entries after “also recorded” stand apart in the source; their conditions may differ.

How the values were obtained:
p44/22 MAPK [1] = assay: Immune complex kinase assay (phospho-Elk 1) in microglial cell lysates; format: cell-based, mouse; conditions: microglia co-treated with phen and Aβ peptides; effect of added agent
Protocol: Primary culture microglial cells were seeded in 6-well tissue-culture plates at 8×10^5 per well. Thirty minutes following co-treatment with phen and Aβ peptides in the presence or absence of anti-CD45 antibody or appropriate controls, microglial cells were lysed in ice-cold lysis buffer (as described above). Total cellular protein was quantified with the BioRad protein assay, and an aliquot of […] of protein for each treatment condition was separated by SDS-PAGE. p44/22 MAPK activity was determined using the p44/22 MAP-Kinase Assay Kit (New England BioLabs, Beverly, Mass.) in strict accordance with the manufacturer's instruction. The phosphorylated form of the Elk 1 p44/22 MAPK fusion protein was visualized by Western immunoblotting (as described above) using a specific antibody for phosphorylated Elk 1 supplied with the kit.

p44/22 MAPK [2] = assay: Western immunoblotting of phosphorylated/total p44/22 MAPK in microglial cell lysates; format: cell-based, mouse; conditions: microglia co-treated with phen and Aβ peptides; effect of added agent
Protocol: Murine primary culture microglia were plated in 6 well tissue-culture plates at a density of 8×10^5 cells/well. These cells were incubated for 30 min with or without phen ([…]) and Aβ peptides (1000 nM) in the presence or absence of anti-CD45 or control antibodies (1:200 dilution for each) or PD98059 ([…]) pre-treatment for 1 hour, or appropriate controls. Immediately following culturing, microglia were washed in ice-cold phosphate buffered saline (PBS) 3×, scraped into ice-cold PBS, and lysed in an ice-cold lysis buffer containing 20 mM Tris (pH 7.5), 150 mM NaCl, 1 mM EDTA, 1 mM EGTA, 1% Triton X-100, 2.5 mM sodium pyrophosphate, 1 mM b-glycerolphosphate, 1 mM Na3VO4, 1 μg/mL leupeptin, and 1 mM PMSF. After incubation for 30 min. on ice, samples were centrifuged at high speed for 15 minutes, and supernatants were collected. Total protein content was estimated using the Bio-Rad protein assay. An aliquot corresponding to 50 μg of total protein of each sample was separated by SDS-PAGE and transferred electrophoretically to Hy-bond PVDF membranes. Non-specific antibody binding was blocked with 5% non-fat dry milk for 1 h at room temperature in TBS (20 mM Tris, 500 mM NaCl, pH 7.5). […] Densiometric analysis was preformed for all blots using the Fluor-S Multimager™ with Quantity One™ software (Bio-Rad, Calif.).

[3] = system: primary cultured microglial cells; assay: Nitric oxide (NO) release assay on primary cultured microglial cells; format: cell-based, mouse; conditions: for NO release induced by phen and Aβ peptides: microglia activated with phen (5 mM) and Aβ peptides (1000 nM), 12 h, effect of added agent; for NO release (microglial activation): phosphatase inhibitor co-treated with Aβ peptides (1000 nM), wild-type microglia, 12 hours
Protocol: (§1) Breeding pairs of BALB/c and CD45 deficient (C57BL/601aHsd-Ptprc) mice were purchased from Jackson Laboratory (Bar Harbor, Maine) and housed in the animal facility at the University of South Florida Health Science Center. Tg APPSW mice are the 2576 line backcrossed to C57B6/SJL as previously described (Hsiao et al., 1995; Hsiao et al., 1996). Murine primary culture microglia were isolated from mouse cerebral cortices and were grown in RPMI medium supplemented with 5% fetal calf serum, 2 mM glutamine, 100 U/mL penicillin, […] streptomycin and 0.05 mM 2-mercaptoethanol according to previously described methods (Chao et al., 1992). Briefly, cerebral cortices from newborn mice (1-2 days old) were isolated under sterile conditions and were kept at 4 degrees Centigrade prior to mechanical dissociation. Cells were plated in […] flasks and complete medium was added. Primary cultures were kept for 14 days so that only glial cells remained, and microglia were isolated by shaking flasks at 200 rpm in a LabLine TM Incubator-Shaker. More than 98% of these glial cells stained positive for Mac-1 (CD11b /CD18; Boehringer Mannheim Biochemicals, Indianapolis, Ind.). Mouse primary culture neuronal cells were prepared as previously described (Chao et al., 1992). Briefly, cerebral cortices were isolated from BALB/c mouse embryos, between 15 to 17 days in utero, and cortices were mechanically dissociated in trypsin ([…]) following incubation for 15 min at 37° C. Cells were collected following centrifugation at 1200 rpm and resuspended in DMEM (GIBCO, Gaithersburg, Md.) supplemented with 10% fetal calf serum, 10% horse serum, uridine (33.6 mg/mL, Sigma Chemical-Co., St. Louis, Mo.) and fluorodeoxyuridine (1 3.6 mg/mL, Sigma) and plated in 24 well tissue-culture plates at 2.5×1 O′ cells/well after collagen-coating the plates. After 10 days in vitro, cells were passed in preparation for subsequent experiments. […] To verify CD45 deficiency status, CD45 expression in microglia isolated from CD45 -deficient mice was determined by FACS (fluorescence activated cell sorter) analysis as previously described (Tan et al., 1999a), and CD45 was undetectable in these cells (data not shown).
(§2) Primary cultured microglial cells were plated in 24-well tissue-culture plates (Costar, Cambridge, Mass.) at 5×10^4 cells/well and stimulated for 12 h with phen ([…]), Aβ peptides (1000 nM) or phen/Aβ peptides in the presence or absence of anti-CD45 antibody (1:200) or PD98059 ([…]) pre-treatment for 1 hour, or appropriate controls. […] The Bio-Rad protein assay (Bio-Rad Laboratories, Hercules, Calif.) was performed to measure total cellular protein from each of the cell groups under consideration just prior to quantification of cytokine release by ELISA or NO secretion by NO assay.

[4] = system: primary cultured microglial cells; assay: TNF-α ELISA on primary cultured microglial cells; format: cell-based, mouse; conditions: for TNF-α release induced by phen and Aβ peptides: microglia activated with phen (5 mM) and Aβ peptides (1000 nM), 12 h, effect of added agent; for TNF-α production (microglial activation): phosphatase inhibitor co-treated with Aβ peptides (1000 nM), wild-type microglia, 12 hours
Protocol: as §1, §2

Tg APPSW mice = Tg APPSW mice given ibuprofen; cited from earlier work

| Molecule | NO release induced by phen and Aβ peptides [3] | TNF-α release induced by phen and Aβ peptides [4] | NO release (microglial activation) [3] | TNF-α production (microglial activation) [4] | further results |
| --- | --- | --- | --- | --- | --- |
| COc1cccc(-c2cc(=O)c3ccccc3o2)c1N [PD98059] | markedly decreased; also recorded: statistically interactive blockade | markedly decreased; also recorded: statistically interactive blockade | – | – | phen and Aβ-mediated activity of p44/22 MAPK (p44/22 MAPK [1]): significant reduction; phen and Aβ-mediated phosphorylation of p44/22 MAPK (p44/22 MAPK [2]): significant reduction |
| CC(C)Cc1ccc(C(C)C(=O)O)cc1 (centres unmarked) [ibuprofen] | – | – | – | – | Aβ deposits, astrocytosis, and dystrophic neurites (Tg APPSW mice): reduction |
| C=C1[C@@H](O)[C@@H]2O[C@]3(CC[C@H](/C=C/[C@@H](C)[C@@H]4CC(C)=C[C@@]5(O[C@H](C[C@@](C)(O)C(=O)O)CC[C@H]5O)O4)O3)CC[C@H]2O[C@@H]1[C@@H](O)C[C@H](C)[C@H]1O[C@@]2(CCCCO2)CC[C@H]1C [okadaic acid] | – | – | not detectable | not detectable | – |
| [Na+].[Na+].[Na+].[O]=[V]([O-])([O-])[O-] [sodium orthovanadate] | – | – | results similar to phen and Aβ peptide co-treatment | results similar to phen and Aβ peptide co-treatment | – |
| CD45 recombinant protein: Human CD45 recombinant protein obtained from CALBIOCHEM, added at 20 U/mL (protein, UniProt P08575 26-1306, looked up) Receptor-type …: QSPTPSPTGLTTAKMPSVPLSSDPLPTHTTAFSPASTFERENDFSETTTSLSPDNTSTQVSPDSLDNASAFNTTGVSSVQTPHLPTHADSQTPSAGTDTQTFSGSAANAKLNPTPGSNAISDVPGERSTASTFPTDPVSPLTTTLSLAHHSSAALPARTSNTTITANTSDAYLNASETTTLSPSGSAVISTTTIATTPSKPTCDEKYANITVDYLYNKETKLFTAKLNVNENVECGNNTCTNNEVHNLTECKNASVSISHNSCTAPDKTLILDVPPGVEKFQLHDCTQVEKADTTICLKWKNIETFTCDTQNITYRFQCGNMIFDNKEIKLENLEPEHEYKCDSEILYNNHKFTNASKIIKTDFGSPGEPQIIFCRSEAAHQGVITWNPPQRSFHNFTLCYIKETEKDCLNLDKNLIKYDLQNLKPYTKYVLSLHAYIIAKVQRNGSAAMCHFTTKSAPPSQVWNMTVSMTSDNSMHVKCRPPRDRNGPHERYHLEVEAGNTLVRNESHKNCDFRVKDLQYSTDYTFKAYFHNGDYPGEPFILHHSTSYNSKALIAFLAFLIIVTSIALLVVLYKIYDLHKKRSCNLDEQQELVERDDEKQLMNVEPIHADILLETYKRKIADEGRLFLAEFQSIPRVFSKFPIKEARKPFNQNKNRYVDILPYDYNRVELSEINGDAGSNYINASYIDGFKEPRKYIAAQGPRDETVDDFWRMIWEQKATVIVMVTRCEEGNRNKCAEYWPSMEEGTRAFGDVVVKINQHKRCPDYIIQKLNIVNKKEKATGREVTHIQFTSWPDHGVPEDPHLLLKLRRRVNAFSNFFSGPIVVHCSAGVGRTGTYIGIDAMLEGLEAENKVDVYGYVVKLRRQRCLMVQVEAQYILIHQALVEYNQFGETEVNLSELHPYLHNMKKRDPPSEPSPLEAEFQRLPSYRSWRTQHIGNQEENKSKNRNSNVIPYDYNRVPLKHELEMSKESEHDSDESSDDDSDSEEPSKYINASFIMSYWKPEVMIAAQGPLKETIGDFWQMIFQRKVKVIVMLTELKHGDQEICAQYWGEGKQTYGDIEVDLKDTDKSSTYTLRVFELRHSKRKDSRTVYQYQYTNWSVEQLPAEPKELISMIQVVKQKLPQKNSSEGNKHHKSTPLLIHCRDGSQQTGIFCALLNLLESAETEEVVDIFQVVKALRKARPGMVSTFEQYQFLYDVIASTYPAQNGQVKKNNHQEDKIEFDNEVDKVKQDANCVNPLGAPEKLPEAKEQAEGSEPTSGTEGPEHSVNGPASPALNQGS | markedly decreased | markedly decreased | – | – | – |
